# Reference: publication PMC10817917, “Alkyl deoxyglycoside-polymyxin combinations against critical priority carbapenem-resistant gram-negative bacteria” (Scientific Reports, 2024)
# Like-named read-outs stand apart in the source and are kept apart here.
# Legend:
# E. coli ATCC 25922 = experiment: Broth microdilution MIC/MBC, glycosides with or without polymyxins; format: cell-based, Escherichia coli; conditions: for MIC: Escherichia coli, ATCC25922
# E. coli NCTC 13846 = experiment: as above; format: cell-based, Escherichia coli; conditions: strain B
# K. pneumoniae CQ4921 = experiment: as above; format: cell-based, Klebsiella pneumoniae; conditions: for MIC: Klebsiella pneumoniae, CQ4921
# E. cloacae CQ1941 = experiment: as above; format: cell-based; conditions: for MIC: Enterobacter cloacae, CQ1941
# K. pneumoniae CQ1942 = experiment: Broth microdilution MIC, glycosides with or without polymyxins; format: cell-based, Klebsiella pneumoniae; conditions: strain E
# [1] = alone, read-out: MICA (MIC of each compound individually)
# [2] = combination with the lowest FICI
# [3] = compound + colistin, lowest FICI
structure (smiles),measurement,setting,value
"CCCCCCCCCCCCO[C@H]1C[C@H](O)[C@@H](O)[C@H](C)O1 [Compound 3, dodecyl 2,6-dideoxy-α-L-arabino-hexopyranoside]",MIC of colistin in combination with the compound,"E. coli ATCC 25922; Cpd conc. 0.4 μg/mL, strain A",0.5 µg/mL
same,MIC of colistin in combination with the compound,"E. coli ATCC 25922; Cpd conc. 0.8 μg/mL, strain A",0.5 µg/mL
same,MIC of colistin in combination with the compound,"E. coli ATCC 25922; Cpd conc. 3.125 μg/mL, strain A",0.25 µg/mL
same,MIC of colistin in combination with the compound,"E. coli ATCC 25922; Cpd conc. 6.25 μg/mL, strain A",0.25 µg/mL
same,MIC of colistin in combination with the compound,"E. coli ATCC 25922; Cpd conc. 12.5 μg/mL, strain A",0.25 µg/mL
same,MIC of colistin in combination with the compound,"E. coli ATCC 25922; Cpd conc. […], strain A",0.5 µg/mL
same,MIC,"E. coli ATCC 25922; agent alone, no adjuvant (polymyxin conc. 0), strain A, read-out: MIC",> 100 µg/mL
same,MIC,E. coli ATCC 25922; [1],> 100 µg/mL
same,MIC of compound in combination with PMB,"E. coli ATCC 25922; PMB 0.25 μg/mL, strain A",3.1 µg/mL
same,MIC of compound in combination with PMB,"E. coli ATCC 25922; PMB 0.5 μg/mL, strain A",≤ 0.1 µg/mL
same,MIC of compound in combination with colistin,"E. coli ATCC 25922; colistin 0.06 μg/mL, strain A",> 100 µg/mL
same,MIC of compound in combination with colistin,"E. coli ATCC 25922; colistin 0.125 μg/mL, strain A",> 100 µg/mL
same,MIC of compound in combination with colistin,"E. coli ATCC 25922; colistin 0.25 μg/mL, strain A",3.1 µg/mL
same,MIC of compound in combination with colistin,"E. coli ATCC 25922; colistin 0.5 μg/mL, strain A",≤ 0.1 µg/mL
same,MICA(A + B) (MIC of compound in combination with colistin),E. coli ATCC 25922; [2],3.125 µg/mL
same,MICB(A + B) (MIC of colistin in combination with compound),E. coli ATCC 25922; [2],0.25 µg/mL
same,Interpretation (of FICI),E. coli ATCC 25922; compound + colistin,Additive (from 0.5 to 1.0 were additive)
same,FICI,E. coli ATCC 25922; [3],0.52
same,MIC of colistin in combination with the compound,E. coli NCTC 13846; Cpd conc. 0.4 μg/mL,> 0.5 µg/mL
same,MIC of colistin in combination with the compound,E. coli NCTC 13846; Cpd conc. 0.8 μg/mL,> 0.5 µg/mL
same,MIC of colistin in combination with the compound,E. coli NCTC 13846; Cpd conc. 3.125 μg/mL,> 0.5 µg/mL
same,MIC of colistin in combination with the compound,E. coli NCTC 13846; Cpd conc. 6.25 μg/mL,> 0.5 µg/mL
same,MIC of colistin in combination with the compound,E. coli NCTC 13846; Cpd conc. 12.5 μg/mL,> 0.5 µg/mL
same,MIC of colistin in combination with the compound,E. coli NCTC 13846; Cpd conc. […],> 0.5 µg/mL
same,MIC,"E. coli NCTC 13846; Escherichia coli, NCTC13846, agent alone, no adjuvant (polymyxin conc. 0), read-out: MIC",> 100 µg/mL
same,MIC of compound in combination with PMB,E. coli NCTC 13846; PMB 0.25 μg/mL,> 100 µg/mL
same,MIC of compound in combination with PMB,E. coli NCTC 13846; PMB 0.5 μg/mL,> 100 µg/mL
same,MIC of compound in combination with colistin,E. coli NCTC 13846; colistin 0.06 μg/mL,> 100 µg/mL
same,MIC of compound in combination with colistin,E. coli NCTC 13846; colistin 0.125 μg/mL,> 100 µg/mL
same,MIC of compound in combination with colistin,E. coli NCTC 13846; colistin 0.25 μg/mL,> 100 µg/mL
same,MIC of compound in combination with colistin,E. coli NCTC 13846; colistin 0.5 μg/mL,> 100 µg/mL
same,MIC of colistin in combination with the compound,"K. pneumoniae CQ4921; Cpd conc. 0.4 μg/mL, strain C",0.5 µg/mL
same,MIC of colistin in combination with the compound,"K. pneumoniae CQ4921; Cpd conc. 0.8 μg/mL, strain C",0.5 µg/mL
same,MIC of colistin in combination with the compound,"K. pneumoniae CQ4921; Cpd conc. 3.125 μg/mL, strain C",0.25 µg/mL
same,MIC of colistin in combination with the compound,"K. pneumoniae CQ4921; Cpd conc. 6.25 μg/mL, strain C",0.25 µg/mL
same,MIC of colistin in combination with the compound,"K. pneumoniae CQ4921; Cpd conc. 12.5 μg/mL, strain C",0.25 µg/mL
same,MIC of colistin in combination with the compound,"K. pneumoniae CQ4921; Cpd conc. […], strain C",0.5 µg/mL
same,MIC,"K. pneumoniae CQ4921; agent alone, no adjuvant (polymyxin conc. 0), strain C, read-out: MIC",> 100 µg/mL
same,MIC,K. pneumoniae CQ4921; [1],> 100 µg/mL
same,MIC of compound in combination with PMB,"K. pneumoniae CQ4921; PMB 0.5 μg/mL, strain C",≤ 0.1 µg/mL
same,MIC of compound in combination with colistin,"K. pneumoniae CQ4921; colistin 0.06 μg/mL, strain C",> 100 µg/mL
same,MIC of compound in combination with colistin,"K. pneumoniae CQ4921; colistin 0.125 μg/mL, strain C",> 100 µg/mL
same,MIC of compound in combination with colistin,"K. pneumoniae CQ4921; colistin 0.25 μg/mL, strain C",3.1 µg/mL
same,MIC of compound in combination with colistin,"K. pneumoniae CQ4921; colistin 0.5 μg/mL, strain C",0.2 µg/mL
same,MICA(A + B) (MIC of compound in combination with colistin),K. pneumoniae CQ4921; [2],3.125 µg/mL
same,MICB(A + B) (MIC of colistin in combination with compound),K. pneumoniae CQ4921; [2],0.25 µg/mL
same,Interpretation (of FICI),K. pneumoniae CQ4921; compound + colistin,Additive (from 0.5 to 1.0 were additive)
same,FICI,K. pneumoniae CQ4921; [3],0.52
same,MIC of colistin in combination with the compound,"E. cloacae CQ1941; Cpd conc. 0.4 μg/mL, strain D",0.5 µg/mL
same,MIC of colistin in combination with the compound,"E. cloacae CQ1941; Cpd conc. 0.8 μg/mL, strain D",0.5 µg/mL
same,MIC of colistin in combination with the compound,"E. cloacae CQ1941; Cpd conc. 3.125 μg/mL, strain D",0.25 µg/mL
same,MIC of colistin in combination with the compound,"E. cloacae CQ1941; Cpd conc. 6.25 μg/mL, strain D",0.25 µg/mL
same,MIC of colistin in combination with the compound,"E. cloacae CQ1941; Cpd conc. 12.5 μg/mL, strain D",0.25 µg/mL
same,MIC of colistin in combination with the compound,"E. cloacae CQ1941; Cpd conc. […], strain D",0.25 µg/mL
same,MIC,"E. cloacae CQ1941; agent alone, no adjuvant (polymyxin conc. 0), strain D, read-out: MIC",> 100 µg/mL
same,MIC,E. cloacae CQ1941; [1],> 100 µg/mL
same,MIC of compound in combination with PMB,"E. cloacae CQ1941; PMB 0.5 μg/mL, strain D",≤ 0.1 µg/mL
same,MIC of compound in combination with colistin,"E. cloacae CQ1941; colistin 0.06 μg/mL, strain D",> 100 µg/mL
same,MIC of compound in combination with colistin,"E. cloacae CQ1941; colistin 0.125 μg/mL, strain D",> 100 µg/mL
same,MIC of compound in combination with colistin,"E. cloacae CQ1941; colistin 0.25 μg/mL, strain D",1.6 µg/mL
same,MIC of compound in combination with colistin,"E. cloacae CQ1941; colistin 0.5 μg/mL, strain D",≤ 0.1 µg/mL
same,MICA(A + B) (MIC of compound in combination with colistin),E. cloacae CQ1941; [2],1.6 µg/mL
same,MICB(A + B) (MIC of colistin in combination with compound),E. cloacae CQ1941; [2],0.25 µg/mL
same,Interpretation (of FICI),E. cloacae CQ1941; compound + colistin,Additive (from 0.5 to 1.0 were additive)
same,FICI,E. cloacae CQ1941; [3],0.51
same,MIC of colistin in combination with the compound,K. pneumoniae CQ1942; Cpd conc. 0.4 μg/mL,0.5 µg/mL
same,MIC of colistin in combination with the compound,K. pneumoniae CQ1942; Cpd conc. 0.8 μg/mL,0.5 µg/mL
same,MIC of colistin in combination with the compound,K. pneumoniae CQ1942; Cpd conc. 3.125 μg/mL,0.25 µg/mL
